Experiments:
[1] = system: BiP; format: cell-based, African green monkey
[2] = system: CHOP; format: cell-based, murine
[3] = molecular target: GRP78/BiP (Homo sapiens, UniProt P11021); format: cell-based
[4] = molecular target: bovine BiP (Bos taurus, UniProt Q0VCX2); format: biochemical

GRP78/BiP, sequence (P11021 19-654): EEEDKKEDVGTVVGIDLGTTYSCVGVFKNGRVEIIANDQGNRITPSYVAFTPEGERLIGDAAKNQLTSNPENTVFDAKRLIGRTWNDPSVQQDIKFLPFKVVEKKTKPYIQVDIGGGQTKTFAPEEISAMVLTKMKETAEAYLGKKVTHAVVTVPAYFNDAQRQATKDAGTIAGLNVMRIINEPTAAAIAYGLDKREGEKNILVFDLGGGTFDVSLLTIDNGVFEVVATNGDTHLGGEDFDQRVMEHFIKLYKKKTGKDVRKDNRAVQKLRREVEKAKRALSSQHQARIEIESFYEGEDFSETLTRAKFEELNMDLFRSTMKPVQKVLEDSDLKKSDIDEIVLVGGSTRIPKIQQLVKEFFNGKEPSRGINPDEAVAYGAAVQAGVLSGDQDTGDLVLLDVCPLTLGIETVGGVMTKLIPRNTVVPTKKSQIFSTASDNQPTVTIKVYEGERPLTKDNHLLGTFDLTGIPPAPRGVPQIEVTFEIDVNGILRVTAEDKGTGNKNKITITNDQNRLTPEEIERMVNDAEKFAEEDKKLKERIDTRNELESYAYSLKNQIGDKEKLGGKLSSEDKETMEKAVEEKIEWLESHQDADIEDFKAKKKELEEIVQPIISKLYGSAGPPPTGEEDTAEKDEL

C[C@H]1CCC/C=C/[C@@H]2C[C@H](O)C[C@H]2[C@H](O)/C=C/C(=O)O1 [brefeldin A]
effect on SubAB cleavage of 72-kDa BiP [1]: completely blocked

C/C=C(/C)C(=O)O[C@H]1C(C)=C2[C@H]([C@@H]1OC(=O)CCCCCCC)[C@@](C)(OC(C)=O)C[C@H](OC(=O)CCC)[C@@]1(O)[C@H]2OC(=O)[C@@]1(C)O [thapsigargin, reference compound]
CHOP induction in N2A cells [2]: evident
expression of BiP [3]: enhanced expression of BiP

SubB: B subunit of subtilase cytotoxin, 13 kDa, binds target cells and transports SubA intracellularly
cleavage of purified bovine BiP [4]: not cleaved

tunicamycin
CHOP induction in N2A cells [2]: evident

From patent US20100104550A1 (priority 2006, published 2010)
